Experimental data: paper PMC11087268, “A folate inhibitor exploits metabolic differences in Pseudomonas aeruginosa for narrow-spectrum targeting” (Nature Microbiology, 2024)
Where “and” joins values, the source holds several entries; their conditions need not be identical. Equal entries are not always repeated. Where two headings read alike, the source gives them in different places.

Experiments:
[1] = system: PA14 nfxB (T39P) and mexS (L46F) mutants; assay: Pyocyanin production; format: cell-based, Pseudomonas aeruginosa; settings: for Pyocyanin production (Panel E): single replicates
Experimental: […] Cell-free supernatants were […] by centrifugation, and 100 μl were added to a 96-well plate in duplicate. The integrated absorbance spectrum from 306 to 326 nm was taken in a Tecan InfiniteM200 Pro plate reader to determine pyocyanin levels in each sample. A ΔpqsA sample was used to subtract out any background values, and pyocyanin levels were normalized by the ratio of OD600 between wildtype PA14 and the mutants to account for any slight differences in growth.

sheep red blood cells = assay: Haemolysis; format: cell-based; settings: 1 h, vs Triton X-100 100% lysis
Experimental: Samples were treated at 37 °C with shaking for 1 h and then centrifuged. Supernatants were collected and absorbances were measured at 405 nm in a Tecan InfiniteM200 Pro microplate reader.

P. aeruginosa PA14 [2] = assay: In vivo PA14 murine thigh infection; settings: neutropenic CD-1 mice, 24 h post infection; fluorofolin 25 mg kg^−1 subcutaneous and/or SMX 100 mg kg^−1 intraperitoneal at 1 and 12 h; one value per mouse
Source text: For P. aeruginosa thigh infection model and maximum tolerated dose (MTD) studies, care and handling of female 5–6-week-old CD-1 conformed to Institutional Animal Care and Use Committee (IACUC) policies as carried out at the University of North Texas Health Science Center (Fort Worth, Texas) under UNTHSC IACUC-approved protocol nos. IACUC-2021-0003 and IACUC-2020-0039. Rodents were fed either base chow (Envigo) or base diet supplemented with 1.8 g kg^−1 thymidine (Sigma T9250) starting at 2 days before infection. All procedures were conducted in accordance with the UNTHSC IACUC-approved protocol. Animals were housed in rooms undergoing 10–15 air changes per hour. Air provided to the animal rooms was controlled for temperature and humidity and is fully monitored 24 h a day. Air pressure was balanced according to room use. Lighting was controlled in individual rooms by automatic timers with a standard 12 h on, 12 h off cycle.
Female 5–6-week-old CD-1 mice were rendered neutropenic by intraperitoneal cyclophosphamide treatment (Cytoxan) before this study. On day 0, mice were infected intramuscularly with 5.33 log c.f.u. per thigh PA14. Mice were treated subcutaneously with fluorofolin at 1 and 12 h post infection. For co-treatment, mice were treated with SMX intraperitoneally at 1 and 12 h post infection. […] In vivo efficacy was evaluated by the UNTHSC.

PA14 = assay: Checkerboard assay fluorofolin / sulfamethoxazole; format: cell-based, Pseudomonas aeruginosa; settings: PA14, Fluorofolin 0 ug/mL
Experimental: Cells were seeded in a similar manner as described above for MIC calculations. […] Fractional inhibitory concentrations (FICs) were calculated as [[…], where [fluorofolin] and [SMX] are the concentrations of compounds in a given well, which were divided by the concentration of drug at the MIC for each compound.

[3] = system: P. aeruginosa clinical isolates; format: cell-based, Pseudomonas aeruginosa; settings: for % Growth: 50ug/mL
Experimental: Percent growth was calculated by dividing the OD600 of fluorofolin antibiotic-treated wells by that of vehicle-only wells.

P. aeruginosa PA14 [4] = assay: Colony-forming units counting after antibiotic treatment; format: cell-based, Pseudomonas aeruginosa; settings: 2× MIC (fluorofolin 6.2, TMP 250, polymixin B 4 μg ml^−1)
Experimental: P. aeruginosa PA14 overnight cultures were diluted 1:100 and grown to exponential phase (OD600 = 0.4–0.6). Cultures were diluted 1:10 and treated with antibiotic. At each time point, 150 μl of culture was removed, serial diluted 1:10 six times and plated onto LB agar plates. Plates were grown overnight at 37 °C, after which visible colonies were counted. C.f.u.s ml^−1 are reported from dilutions in which ~10–100 single colonies were visible.

Compound: CCCCCCCc1[nH]c2ccccc2c(=O)c1O [PQS, Pseudomonas quinolone signal]
- Pyocyanin production (Panel E) ([1]; PA14, + 1 uM PQS): 15.8282 and 16.194 and 15.1165
- pyocyanin production of nfxB and mexS mutants ([1]; PQS 1 μM added at inoculation): partially rescued
- Pyocyanin production (Panel E) ([1]; PqsA KO, + 1 uM PQS): 17.5069 and 16.392 and 16.1857
- Pyocyanin production (Panel E) ([1]; mexS Mutant, + 1 uM PQS): 10.0838 and 9.877 and 13.1798
- Pyocyanin production (Panel E) ([1]; nfxB mutant, + 1 uM PQS): 8.219 and 6.016 and 7.118

Compound: CC(C)c1ccc(Cn2ccc3c4c(N)nc(NC5CC5)nc4ccc32)cc1 [SCH-79797]
- % Hemolysis, Mean (sheep red blood cells; 0.78125 ug/mL): 0.2789%
- % Hemolysis, Mean (sheep red blood cells; 1.5625 ug/mL): -0.7082%
- % Hemolysis, Mean (sheep red blood cells; 3.125 ug/mL): -0.9423%
- % Hemolysis, Mean (sheep red blood cells; 6.25 ug/mL): 0.9543%
- % Hemolysis, Mean (sheep red blood cells; 12.5 ug/mL): 20.9447%
- % Hemolysis, Mean (sheep red blood cells; 25 ug/mL): 53.6334%
- % Hemolysis, Mean (sheep red blood cells; 50 ug/mL): 64.7041%

Compound: Cc1cc(NS(=O)(=O)c2ccc(N)cc2)no1 [SMX, Sulfamethoxazole, reference compound]
- PA14 load in thigh (P. aeruginosa PA14 [2]): 8.8 log 10(CFU/ mouse) and 8.33 log 10(CFU/ mouse) and 8.57 log 10(CFU/ mouse) and 7.94 log 10(CFU/ mouse)
- FIC index (PA14; SMX 625.00 ug/mL): 1
- FIC index (PA14; SMX 1250.00 ug/mL): 2

Compound: gentamycin
- clinical isolates resistant ([3]; 77 P. aeruginosa clinical isolates (55 CDC/FDA, 22 blood), 50 μg ml^−1, growth inhibition >80% = sensitive): 35.0%
- % Growth ([3]; Isolate# 1): 0.6518%
- % Growth ([3]; Isolate# 2): 105.422%
- % Growth ([3]; Isolate# 3): 61.3464%
- % Growth ([3]; Isolate# 4): 179.172%
- % Growth ([3]; Isolate# 5): 0%
- % Growth ([3]; Isolate# 6): 89.7261%
- % Growth ([3]; Isolate# 7): 110.349%
- % Growth ([3]; Isolate# 8): 97.3307%
- % Growth ([3]; Isolate# 9): 0%
- % Growth ([3]; Isolate# 10): 0%
- % Growth ([3]; Isolate# 11): 111.492%
- % Growth ([3]; Isolate# 12): 30.6669%
- % Growth ([3]; Isolate# 13): 9.611%
- % Growth ([3]; Isolate# 14): 99.0331%
- % Growth ([3]; Isolate# 15): 99.6274%
- % Growth ([3]; Isolate# 16): 86.3373%
- % Growth ([3]; Isolate# 17): 0.5763%
- % Growth ([3]; Isolate# 18): 84.8111%
- % Growth ([3]; Isolate# 19): 0%
- % Growth ([3]; Isolate# 20): 92.394%
- % Growth ([3]; Isolate# 21): 106.701%
- % Growth ([3]; Isolate# 22): 98.4485%
- % Growth ([3]; Isolate# 23): 0%
- % Growth ([3]; Isolate# 24): 0%
- % Growth ([3]; Isolate# 25): 0%
- % Growth ([3]; Isolate# 26): 111.123%
- % Growth ([3]; Isolate# 27): 88.2969%
- % Growth ([3]; Isolate# 28): 0%
- % Growth ([3]; Isolate# 29): 0%
- % Growth ([3]; Isolate# 30): 1.897%
- % Growth ([3]; Isolate# 31): 0%
- % Growth ([3]; Isolate# 32): 104.806%
- % Growth ([3]; Isolate# 33): 0%
- % Growth ([3]; Isolate# 34): 0%
- % Growth ([3]; Isolate# 35): 0%
- % Growth ([3]; Isolate# 36): 0%
- % Growth ([3]; Isolate# 37): 95.3633%
- % Growth ([3]; Isolate# 38): 100.4%
- % Growth ([3]; Isolate# 39): 0%
- % Growth ([3]; Isolate# 40): 0%
- % Growth ([3]; Isolate# 41): 0%
- % Growth ([3]; Isolate# 42): 0%
- % Growth ([3]; Isolate# 43): 82.8316%
- % Growth ([3]; Isolate# 44): 5.792%
- % Growth ([3]; Isolate# 45): 88.2389%
- % Growth ([3]; Isolate# 46): 13.0256%
- % Growth ([3]; Isolate# 47): 70.0551%
- % Growth ([3]; Isolate# 48): 0%
- % Growth ([3]; Isolate# 49): 0%
- % Growth ([3]; Isolate# 50): 2.976%
- % Growth ([3]; Isolate# 51): 0%
- % Growth ([3]; Isolate# 52): 0%
- % Growth ([3]; Isolate# 53): 0%
- % Growth ([3]; Isolate# 54): 0.0248%
- % Growth ([3]; Isolate# 55): 142.857%
- % Growth ([3]; Isolate# 56): 0%
- % Growth ([3]; Isolate# 57): 61.626%
- % Growth ([3]; Isolate# 58): 0.9683%
- % Growth ([3]; Isolate# 59): 34.5167%
- % Growth ([3]; Isolate# 60): 0%
- % Growth ([3]; Isolate# 61): 0%
- % Growth ([3]; Isolate# 62): 0%
- % Growth ([3]; Isolate# 63): 0%
- % Growth ([3]; Isolate# 64): 0%
- % Growth ([3]; Isolate# 65): 0%
- % Growth ([3]; Isolate# 66): 0%
- % Growth ([3]; Isolate# 67): 0%
- % Growth ([3]; Isolate# 68): 0%
- % Growth ([3]; Isolate# 69): 0.2922%
- % Growth ([3]; Isolate# 70): 0%
- % Growth ([3]; Isolate# 71): 0%
- % Growth ([3]; Isolate# 72): 106.187%
- % Growth ([3]; Isolate# 73): 0%
- % Growth ([3]; Isolate# 74): 0%
- % Growth ([3]; Isolate# 75): 0%
- % Growth ([3]; Isolate# 76): 0.1836%
- % Growth ([3]; Isolate# 77): 1.314%

Compound: polymixin B
- PA14 CFU/mL, Mean (P. aeruginosa PA14 [4]; Time 0 h): 197000 CFU/mL
- PA14 CFU/mL, Mean (P. aeruginosa PA14 [4]; Time 1 h): 81.6667 CFU/mL
- PA14 CFU/mL, Mean (P. aeruginosa PA14 [4]; Time 2 h): 17.7778 CFU/mL
- PA14 CFU/mL, Mean (P. aeruginosa PA14 [4]; Time 4 h): 20 CFU/mL
